#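 48-hour exposure; five concentrations; linearly interpolated endpoints. TGI marks complete inhibition of growth.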
# Key:
# Assay in all cases: NCI tumour cell line growth inhibition, 48 h
# [1] = system: HCC-2998 colon
# [2] = system: CAKI-1 renal
# [3] = system: HS 578T breast
# [4] = system: T-47D breast
# [5] = system: LOX IMVI melanoma
# [6] = system: HL-60(TB) leukemia
# [7] = system: MALME-3M melanoma
# [8] = system: SF-539 CNS
# [9] = system: SK-OV-3 ovarian
# [10] = system: PC-3 prostate
# [11] = system: HOP-92 NSCLC
# [12] = system: K-562 leukemia
# [13] = system: MDA-MB-435
# [14] = system: NCI-H460 lung
# [15] = system: SK-MEL-2 melanoma
# [16] = system: NCI/ADR-RES ovarian
# [17] = system: OVCAR-8 ovarian
# [18] = system: RPMI-8226 leukemia
# [19] = system: SNB-75 CNS
SMILES,TGI [1] [µM],TGI [2] [µM],TGI [3] [µM],TGI [4] [µM],TGI [5] [µM],TGI [6] [µM],TGI [7] [µM],TGI [8] [µM],TGI [9] [µM],TGI [10] [µM],TGI [11] [µM],TGI [12] [µM],TGI [13] [µM],TGI [14] [µM],TGI [15] [µM],TGI [16] [µM],TGI [17] [µM],TGI [18] [µM],TGI [19] [µM]
Oc1ccccc1/C=N/Nc1nc(N/N=C/c2ccccc2O)nc(N/N=C/c2ccccc2O)n1,> 100,> 100,> 100,> 100,> 100,> 100,> 100,> 100,> 100,> 100,81.7,> 100,> 100,> 100,> 100,> 100,> 100,–,–
CN(CCCCN1CCCC1)CCCN(C)C(=O)Cc1ccc(Cl)c(Cl)c1,16.9,49.6,59.6,44.2,27.9,34.1,34.7,24.3,> 100,52.7,21.3,11.6,10.2,39.8,22.5,> 100,> 100,25.9,47.5
Nc1nc(N)c(C2=CCNCC2)c(=O)[nH]1,–,> 100,> 100,> 100,–,> 100,> 100,> 100,> 100,> 100,> 100,> 100,> 100,> 100,> 100,> 100,> 100,> 100,> 100
CC1(C)O[C@@H]2[C@@H](COC(=O)c3ccccc3)C[C@@H](C#N)[C@@H]2O1,> 100,–,> 100,> 100,> 100,> 100,> 100,> 100,> 100,> 100,> 100,> 100,> 100,> 100,–,> 100,> 100,> 100,> 100
COc1cc(NC(C)=O)ccc1C(=O)N/N=C/c1ccc(Cl)cc1Cl,> 100,> 100,> 100,70.8,> 100,> 100,> 100,> 100,> 100,> 100,> 100,> 100,56.4,–,51.3,> 100,> 100,> 100,36.5
COC(=O)c1ccccc1C1CN=NC12Cc1ccc(C)c(C)c1C2=O (centres undefined),> 100,> 100,> 100,> 100,> 100,69.7,> 100,> 100,> 100,> 100,> 100,> 100,> 100,> 100,> 100,> 100,> 100,–,> 100
Oc1cc(Br)cc2cccnc12,98.2,39,> 100,25.4,–,0.82,47,> 45.1,79.9,> 100,38,8.08,> 60,17,> 100,8.26,> 35.4,5.68,> 91.5
Cc1ccc(NC(=O)CSc2nc(C)nc3c2sc(=S)n3-c2ccccc2)cc1,> 10,> 10,6.3,> 10,> 10,> 10,> 10,7.81,> 10,> 10,9.04,> 10,> 10,> 10,> 10,> 10,> 10,> 10,4.84
CC(=O)N1OC(C)CC1Nc1ccc(Br)cc1 (centres undefined),22.4,–,> 100,> 100,–,> 100,> 100,> 100,> 100,> 100,> 100,> 100,> 100,> 100,> 100,> 100,> 100,–,–
COC(=O)c1ccccc1CC1Cc2ccc3c(c2C1)CCC3 (centres undefined),45.7,> 100,> 100,> 100,31.1,32.1,38.6,> 100,> 100,> 100,52.5,> 100,57.9,> 100,30.7,45.7,> 100,47.7,> 100
CCOP(=O)(CCCC(O)CNc1cc(Cl)nc(N)n1)OCC (centres undefined),> 100,> 100,> 100,> 100,> 100,> 100,> 100,> 100,> 100,> 100,> 100,> 100,> 100,> 100,> 100,> 100,> 100,> 100,> 100
COc1ccc(C(=O)Cn2c(C(=O)/C=C/c3ccco3)nc3ccccc32)cc1,37.1,–,63.8,> 100,> 100,71.7,> 100,> 100,97.4,> 100,> 100,> 100,> 100,> 100,51.6,75.2,–,88.7,> 100
O=C1CC(O)c2c(Br)sc(Br)c21 (centres undefined),18,4.24,55.9,30.5,20.4,14.9,32.9,21.5,30.3,25.9,43.6,8.3,18.5,34.8,28,> 100,24.1,11.8,29.8
COc1cc(OC)c2c(=O)cc(-c3ccccc3F)[nH]c2c1,52.3,> 100,> 100,> 100,> 100,> 100,> 100,–,> 100,> 100,> 100,> 100,> 100,> 100,> 100,> 100,> 100,> 100,> 100
CN(C)c1ccc(/C=c2/c3ccccc3n3nc4ccccc4c23)cc1,–,> 100,> 100,55.4,> 100,> 100,> 100,84.8,> 100,> 100,90.7,> 100,> 100,> 100,> 100,> 100,> 100,39.1,27.7
COc1cc(/C=C2\C[C@H]3[C@@H]4CC=C5C=C(N6CCCC6)CC[C@]5(C)[C@H]4CC[C@]3(C)C2=O)cc(OC)c1OC,3.57,7.61,6.21,11.1,2.87,17.8,5.61,12.5,22.1,15.2,5.67,> 100,5.83,–,13,> 23.3,6.1,> 28,15.9
Nc1c2c(=O)[nH]c(=O)c2c(N)c2c(=O)c3ccccc3c(=O)c12,> 63.3,22.9,> 25.9,> 49.6,–,> 100,0.581,4.52,32.9,> 36.6,51.9,> 45.9,2.46,2.52,6.2,5.9,5.82,8.53,–
COC1CC(OC2C(C)OC(OC3C(C)OC(OC4C(O)CC(O[C@H]5CC[C@@]6(C)C(=CC[C@]7(O)[C@@H]6C[C@@H](OC(=O)/C=C/c6ccccc6)[C@@]6(C)[C@]7(O)CC[C@@]6(O)C(C)=O)C5)OC4C)CC3OC)CC2OC)OC(C)C1O (some centres undefined),> 6.25,> 6.25,> 6.25,> 6.25,> 6.25,> 6.25,> 6.25,> 6.25,> 6.25,> 6.25,> 6.25,> 6.25,> 6.25,–,> 6.25,> 6.25,> 6.25,> 6.25,> 6.25
Cc1c(C)c2c(c(N)c1C#N)C(=O)N(Nc1ccccc1)C2=O,> 100,> 100,> 100,> 100,> 100,> 100,> 100,> 100,–,> 100,> 100,> 100,> 100,> 100,> 100,> 100,> 100,> 100,> 100
CC(C)=NN/C(=N\S(=O)(=O)c1ccc(C)cc1)Nc1ccc(Cl)cc1,–,> 100,> 100,> 100,> 100,> 100,> 100,–,–,> 100,> 100,> 100,> 100,> 100,> 100,> 100,> 100,> 100,–

# — PubChem BioAssay (NCI)
